Results: ChEMBL document CHEMBL5303762, “Data for DCP probe BI-8668” (2023)

Key:
[1] = target: Adenosine receptor A2a (Homo sapiens) (UniProt P29274); assay: A2A/H Eurofins SafetyScreen44 (BI); conditions: filed as antagonist, Compound concentration 10.0 uM
[2] = target: T1, 5-hydroxytryptamine receptor 1A (Homo sapiens) (UniProt P08908); assay: 5HT1A/H Eurofins SafetyScreen44 (BI); conditions: Compound concentration 10.0 uM
T1 sequence (whole entry): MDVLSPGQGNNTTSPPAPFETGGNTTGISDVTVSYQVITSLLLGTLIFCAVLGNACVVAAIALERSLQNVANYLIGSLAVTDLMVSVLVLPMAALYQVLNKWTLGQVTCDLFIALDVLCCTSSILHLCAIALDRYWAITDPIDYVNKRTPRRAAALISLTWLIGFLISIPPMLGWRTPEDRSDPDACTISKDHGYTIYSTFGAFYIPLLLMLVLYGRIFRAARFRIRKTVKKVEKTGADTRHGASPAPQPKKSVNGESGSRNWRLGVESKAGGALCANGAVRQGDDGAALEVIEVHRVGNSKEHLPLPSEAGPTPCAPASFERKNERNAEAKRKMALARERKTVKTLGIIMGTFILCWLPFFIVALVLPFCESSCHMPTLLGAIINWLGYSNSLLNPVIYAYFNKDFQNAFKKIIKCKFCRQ

[3] = target: D(2) dopamine receptor (Homo sapiens) (UniProt P14416); assay: D2SH_AGON Eurofins SafetyScreen44 (BI); conditions: filed as agonist, Compound concentration 10.0 uM
[4] = target: Glucocorticoid receptor (Homo sapiens) (UniProt P04150); assay: GCORTICOID/H Eurofins SafetyScreen44 (BI); conditions: Compound concentration 10.0 uM
[5] = target: Kappa-type opioid receptor (Homo sapiens) (UniProt P41145); conditions: Compound concentration 10.0 uM
[6] = target: 5-hydroxytryptamine receptor 2A (Homo sapiens) (UniProt P28223); assay: 5HT2AH_AGON Eurofins SafetyScreen44 (BI); conditions: filed as agonist, Compound concentration 10.0 uM
[7] = target: voltage-gated sodium channel (site 2) (Rattus norvegicus, UniProt F1LQQ7+O08562+O88420+O88457+P04774+P04775+P08104+P15389+P15390+Q62968); assay: NA+/SITE2/R Eurofins SafetyScreen44 (BI); type: protein assay; conditions: compound concentration 10 uM, read-out: % Ctrl
[8] = target: Beta-1 adrenergic receptor (Homo sapiens) (UniProt P08588); assay: BETA1/HUM Eurofins SafetyScreen44 (BI); conditions: Compound concentration 10.0 uM
[9] = target: GABA-A receptor; anion channel (Rattus norvegicus) (UniProt O09028+P15431+P18506+P18508+P19969+P20236+P23574+P23576+P28471+P28473+P30191+P62813+P63079+P63138+Q91ZM7+Q9ES14); assay: BZD/CENTR/R Eurofins SafetyScreen44 (BI); type: protein-complex assay; conditions: Compound concentration 10.0 uM
[10] = target: hERG (KCNH2) (Homo sapiens, UniProt Q12809); assay: HERG_DOFETILIDE Eurofins SafetyScreen44 (BI); conditions: probe dofetilide, compound concentration 10 uM, read-out: % Ctrl
[11] = target: T2, 5-hydroxytryptamine receptor 3A (Homo sapiens) (UniProt P46098); assay: 5HT3/H Eurofins SafetyScreen44 (BI); conditions: Compound concentration 10.0 uM
T2 sequence (whole entry): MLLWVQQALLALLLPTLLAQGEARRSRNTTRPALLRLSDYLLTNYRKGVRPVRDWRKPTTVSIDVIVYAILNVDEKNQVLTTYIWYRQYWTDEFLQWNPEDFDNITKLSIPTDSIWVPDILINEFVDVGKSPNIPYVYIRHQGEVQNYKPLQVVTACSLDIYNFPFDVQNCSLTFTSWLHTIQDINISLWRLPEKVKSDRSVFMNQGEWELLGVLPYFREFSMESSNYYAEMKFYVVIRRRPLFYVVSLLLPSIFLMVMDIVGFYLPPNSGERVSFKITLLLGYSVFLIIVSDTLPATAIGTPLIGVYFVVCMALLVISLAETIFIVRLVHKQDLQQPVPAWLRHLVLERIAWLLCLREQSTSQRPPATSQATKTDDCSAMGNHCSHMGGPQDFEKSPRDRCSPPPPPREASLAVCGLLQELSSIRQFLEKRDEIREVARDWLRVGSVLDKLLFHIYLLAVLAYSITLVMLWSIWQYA

[12] = target: Angiotensin-converting enzyme (Homo sapiens) (UniProt P12821); assay: ACE(HU_AMTCH400) Eurofins SafetyScreen44 (BI)
[13] = target: Vasopressin V1a receptor (Homo sapiens) (UniProt P37288); assay: V1A/HUM Eurofins SafetyScreen44 (BI); conditions: Compound concentration 10.0 uM
[14] = target: Neuronal acetylcholine receptor; alpha4/beta2 (Homo sapiens) (UniProt P17787+P43681); assay: N_NEURO_A4B2 Eurofins SafetyScreen44 (BI); type: protein-complex assay; conditions: filed as agonist, Compound concentration 10.0 uM
[15] = target: 5-hydroxytryptamine receptor 2B (Homo sapiens) (UniProt P41595); assay: 5HT2B/H AG Eurofins SafetyScreen44 (BI); conditions: filed as agonist, Compound concentration 10.0 uM
[16] = target: Sodium-dependent serotonin transporter (Homo sapiens) (UniProt P31645); assay: SLC6A4/H Eurofins SafetyScreen44 (BI); conditions: filed as antagonist, Compound concentration 10.0 uM
[17] = target: Muscarinic acetylcholine receptor M3 (Homo sapiens) (UniProt P20309); conditions: Compound concentration 10.0 uM
[18] = target: T3, Muscarinic acetylcholine receptor M1 (Homo sapiens) (UniProt P11229); assay: M1/H Eurofins SafetyScreen44 (BI); conditions: Compound concentration 10.0 uM
T3 sequence (whole entry): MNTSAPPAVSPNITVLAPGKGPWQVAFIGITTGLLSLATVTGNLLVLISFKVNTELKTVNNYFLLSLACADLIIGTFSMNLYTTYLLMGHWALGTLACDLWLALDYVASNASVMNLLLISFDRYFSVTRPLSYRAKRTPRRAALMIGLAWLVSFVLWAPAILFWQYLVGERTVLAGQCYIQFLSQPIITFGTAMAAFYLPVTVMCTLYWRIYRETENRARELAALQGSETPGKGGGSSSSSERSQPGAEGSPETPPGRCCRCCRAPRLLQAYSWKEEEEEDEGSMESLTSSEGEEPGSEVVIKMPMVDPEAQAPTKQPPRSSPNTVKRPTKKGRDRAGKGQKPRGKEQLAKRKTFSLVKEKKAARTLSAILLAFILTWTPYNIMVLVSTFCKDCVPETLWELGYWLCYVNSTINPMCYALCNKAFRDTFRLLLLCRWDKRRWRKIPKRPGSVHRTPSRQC

[19] = target: Sodium-dependent dopamine transporter (Homo sapiens) (UniProt Q01959); assay: DATRANS/HUM Eurofins SafetyScreen44 (BI); conditions: Compound concentration 10.0 uM
[20] = target: L-type calcium channel alpha-1C (dihydropyridine site) (Rattus norvegicus, UniProt P22002); assay: CA+/DHPSI/R Eurofins SafetyScreen44 (BI); conditions: compound concentration 10 uM, read-out: % Ctrl
[21] = target: Muscarinic acetylcholine receptor M3 (Homo sapiens) (UniProt P20309); assay: M3/H Eurofins SafetyScreen44 (BI); conditions: Compound concentration 10.0 uM
[22] = target: Cholecystokinin receptor type A (Homo sapiens) (UniProt P32238); assay: CCKA/H Eurofins SafetyScreen44 (BI); conditions: Compound concentration 10.0 uM

Angiotensin-converting enzyme (Homo sapiens), sequence (P12821 whole entry): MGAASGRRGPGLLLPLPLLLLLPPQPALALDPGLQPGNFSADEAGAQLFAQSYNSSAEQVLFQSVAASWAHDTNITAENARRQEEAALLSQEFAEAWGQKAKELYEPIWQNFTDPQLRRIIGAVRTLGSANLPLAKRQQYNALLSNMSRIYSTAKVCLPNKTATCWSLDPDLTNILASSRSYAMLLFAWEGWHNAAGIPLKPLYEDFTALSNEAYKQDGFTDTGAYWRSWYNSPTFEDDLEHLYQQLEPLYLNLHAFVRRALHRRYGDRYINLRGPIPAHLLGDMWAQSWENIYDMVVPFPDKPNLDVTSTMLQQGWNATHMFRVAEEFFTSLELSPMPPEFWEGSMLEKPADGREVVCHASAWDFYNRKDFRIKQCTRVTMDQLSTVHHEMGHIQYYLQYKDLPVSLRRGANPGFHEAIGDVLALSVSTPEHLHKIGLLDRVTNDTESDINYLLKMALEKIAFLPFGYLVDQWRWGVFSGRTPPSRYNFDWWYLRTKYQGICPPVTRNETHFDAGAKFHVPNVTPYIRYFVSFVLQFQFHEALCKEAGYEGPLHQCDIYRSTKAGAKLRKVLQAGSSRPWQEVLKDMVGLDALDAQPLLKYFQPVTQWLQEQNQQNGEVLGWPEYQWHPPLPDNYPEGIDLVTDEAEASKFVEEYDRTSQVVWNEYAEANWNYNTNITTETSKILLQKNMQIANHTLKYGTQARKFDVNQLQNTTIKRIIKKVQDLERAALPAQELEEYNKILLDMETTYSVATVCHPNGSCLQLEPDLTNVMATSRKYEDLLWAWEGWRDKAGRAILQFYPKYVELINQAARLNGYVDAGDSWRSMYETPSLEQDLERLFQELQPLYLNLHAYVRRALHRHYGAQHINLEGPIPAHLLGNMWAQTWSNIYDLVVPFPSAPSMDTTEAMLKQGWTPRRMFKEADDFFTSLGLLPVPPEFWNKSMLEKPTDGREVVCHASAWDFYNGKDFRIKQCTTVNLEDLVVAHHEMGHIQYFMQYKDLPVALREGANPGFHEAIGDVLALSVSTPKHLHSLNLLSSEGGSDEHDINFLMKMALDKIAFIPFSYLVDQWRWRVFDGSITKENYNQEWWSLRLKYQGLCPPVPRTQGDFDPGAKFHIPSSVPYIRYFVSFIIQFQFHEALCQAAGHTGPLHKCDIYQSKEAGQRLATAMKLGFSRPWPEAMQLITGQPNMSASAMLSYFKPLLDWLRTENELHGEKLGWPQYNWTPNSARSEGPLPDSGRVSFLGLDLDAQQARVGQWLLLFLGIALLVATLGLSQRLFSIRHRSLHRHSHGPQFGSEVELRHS
Muscarinic acetylcholine receptor M3 (Homo sapiens), sequence (P20309 whole entry, looked up): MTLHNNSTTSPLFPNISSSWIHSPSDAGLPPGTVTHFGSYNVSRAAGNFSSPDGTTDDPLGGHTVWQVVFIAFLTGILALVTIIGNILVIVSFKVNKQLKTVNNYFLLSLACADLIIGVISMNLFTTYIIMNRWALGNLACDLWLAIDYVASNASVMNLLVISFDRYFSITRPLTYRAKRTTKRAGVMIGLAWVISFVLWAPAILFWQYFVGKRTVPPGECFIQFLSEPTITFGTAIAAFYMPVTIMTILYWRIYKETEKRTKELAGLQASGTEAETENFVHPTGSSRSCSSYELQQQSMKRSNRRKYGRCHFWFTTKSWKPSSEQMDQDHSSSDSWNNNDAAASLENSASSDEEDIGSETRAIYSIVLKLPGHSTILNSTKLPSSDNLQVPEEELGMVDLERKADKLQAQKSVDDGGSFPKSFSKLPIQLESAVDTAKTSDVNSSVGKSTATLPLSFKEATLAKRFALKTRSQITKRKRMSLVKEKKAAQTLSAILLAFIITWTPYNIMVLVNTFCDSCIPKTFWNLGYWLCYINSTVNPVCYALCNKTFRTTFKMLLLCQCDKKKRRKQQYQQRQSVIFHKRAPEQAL
L-type calcium channel alpha-1C (dihydropyridine site), sequence (P22002 whole entry): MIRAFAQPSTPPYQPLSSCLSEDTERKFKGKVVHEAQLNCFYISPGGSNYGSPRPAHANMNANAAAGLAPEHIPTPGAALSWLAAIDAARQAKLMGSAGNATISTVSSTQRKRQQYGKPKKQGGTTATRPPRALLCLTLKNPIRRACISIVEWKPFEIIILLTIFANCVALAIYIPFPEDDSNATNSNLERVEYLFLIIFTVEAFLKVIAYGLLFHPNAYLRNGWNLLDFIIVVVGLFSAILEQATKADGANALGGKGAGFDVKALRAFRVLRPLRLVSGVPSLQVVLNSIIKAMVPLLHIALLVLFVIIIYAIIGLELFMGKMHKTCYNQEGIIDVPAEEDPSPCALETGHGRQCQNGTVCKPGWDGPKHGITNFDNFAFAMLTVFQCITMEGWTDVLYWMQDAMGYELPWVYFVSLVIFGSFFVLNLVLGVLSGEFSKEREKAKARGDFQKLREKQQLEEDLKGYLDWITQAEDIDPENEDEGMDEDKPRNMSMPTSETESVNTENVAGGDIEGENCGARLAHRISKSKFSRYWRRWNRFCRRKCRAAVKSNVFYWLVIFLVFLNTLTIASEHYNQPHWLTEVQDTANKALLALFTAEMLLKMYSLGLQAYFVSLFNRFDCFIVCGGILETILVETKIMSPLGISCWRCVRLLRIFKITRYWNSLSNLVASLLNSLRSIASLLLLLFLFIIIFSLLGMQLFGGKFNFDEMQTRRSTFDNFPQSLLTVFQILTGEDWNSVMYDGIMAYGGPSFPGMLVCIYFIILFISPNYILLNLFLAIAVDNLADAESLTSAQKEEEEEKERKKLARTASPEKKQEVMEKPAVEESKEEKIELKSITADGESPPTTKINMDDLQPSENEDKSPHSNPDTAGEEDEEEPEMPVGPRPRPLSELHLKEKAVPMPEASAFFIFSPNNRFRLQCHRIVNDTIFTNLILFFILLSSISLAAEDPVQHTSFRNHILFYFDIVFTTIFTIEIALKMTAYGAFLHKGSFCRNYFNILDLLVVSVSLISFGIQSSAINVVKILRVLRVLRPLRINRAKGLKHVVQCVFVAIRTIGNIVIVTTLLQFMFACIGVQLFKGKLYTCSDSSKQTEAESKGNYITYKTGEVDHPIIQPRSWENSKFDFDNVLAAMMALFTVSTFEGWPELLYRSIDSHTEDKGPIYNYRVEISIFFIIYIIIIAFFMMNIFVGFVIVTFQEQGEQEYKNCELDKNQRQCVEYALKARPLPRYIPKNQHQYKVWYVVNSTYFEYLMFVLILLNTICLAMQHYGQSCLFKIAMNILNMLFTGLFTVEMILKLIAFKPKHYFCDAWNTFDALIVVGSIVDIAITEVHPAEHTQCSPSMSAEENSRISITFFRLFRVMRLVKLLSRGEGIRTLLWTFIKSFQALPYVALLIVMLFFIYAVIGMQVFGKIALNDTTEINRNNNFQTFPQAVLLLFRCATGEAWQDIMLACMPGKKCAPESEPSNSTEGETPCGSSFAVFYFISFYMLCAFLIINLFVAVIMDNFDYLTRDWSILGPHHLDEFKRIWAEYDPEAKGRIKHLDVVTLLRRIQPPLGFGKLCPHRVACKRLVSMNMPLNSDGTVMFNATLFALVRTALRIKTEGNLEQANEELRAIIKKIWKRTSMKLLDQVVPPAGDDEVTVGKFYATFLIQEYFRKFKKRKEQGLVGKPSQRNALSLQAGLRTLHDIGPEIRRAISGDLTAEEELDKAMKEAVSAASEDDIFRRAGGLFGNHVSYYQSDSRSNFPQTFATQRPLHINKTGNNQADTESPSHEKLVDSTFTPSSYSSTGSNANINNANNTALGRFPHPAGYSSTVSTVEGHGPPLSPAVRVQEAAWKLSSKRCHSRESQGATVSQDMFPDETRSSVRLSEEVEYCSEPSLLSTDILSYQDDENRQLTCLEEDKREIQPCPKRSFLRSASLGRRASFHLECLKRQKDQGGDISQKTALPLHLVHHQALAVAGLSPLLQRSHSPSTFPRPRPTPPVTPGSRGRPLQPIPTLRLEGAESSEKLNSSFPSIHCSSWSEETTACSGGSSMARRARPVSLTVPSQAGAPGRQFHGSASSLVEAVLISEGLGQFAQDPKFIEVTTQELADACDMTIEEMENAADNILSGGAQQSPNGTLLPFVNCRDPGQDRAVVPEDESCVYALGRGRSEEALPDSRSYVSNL
D(2) dopamine receptor (Homo sapiens), sequence (P14416 whole entry): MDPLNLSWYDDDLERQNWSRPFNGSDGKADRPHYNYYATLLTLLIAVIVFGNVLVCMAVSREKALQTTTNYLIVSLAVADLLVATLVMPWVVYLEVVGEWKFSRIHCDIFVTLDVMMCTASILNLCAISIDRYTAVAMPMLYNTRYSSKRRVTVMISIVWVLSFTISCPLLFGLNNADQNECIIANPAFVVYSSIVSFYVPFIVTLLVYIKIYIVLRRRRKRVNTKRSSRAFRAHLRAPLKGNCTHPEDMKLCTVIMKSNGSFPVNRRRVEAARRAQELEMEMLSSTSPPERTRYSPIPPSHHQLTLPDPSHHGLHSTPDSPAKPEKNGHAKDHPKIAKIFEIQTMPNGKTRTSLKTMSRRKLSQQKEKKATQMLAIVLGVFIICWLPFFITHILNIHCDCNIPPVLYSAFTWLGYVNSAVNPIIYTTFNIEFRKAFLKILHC
Kappa-type opioid receptor (Homo sapiens), sequence (P41145 whole entry): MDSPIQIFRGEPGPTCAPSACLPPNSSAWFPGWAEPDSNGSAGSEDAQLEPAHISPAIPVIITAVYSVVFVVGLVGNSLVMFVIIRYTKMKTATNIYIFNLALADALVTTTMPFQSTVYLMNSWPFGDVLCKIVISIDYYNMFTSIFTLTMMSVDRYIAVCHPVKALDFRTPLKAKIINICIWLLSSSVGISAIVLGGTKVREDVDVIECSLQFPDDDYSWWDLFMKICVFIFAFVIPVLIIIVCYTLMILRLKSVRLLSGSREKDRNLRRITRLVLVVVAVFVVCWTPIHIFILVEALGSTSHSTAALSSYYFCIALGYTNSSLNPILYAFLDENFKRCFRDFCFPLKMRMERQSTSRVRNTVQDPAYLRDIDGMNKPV

Row | SMILES | residual activity [1] [%] | residual activity [2] [%] | residual activity [3] [%] | residual activity [4] [%] | residual activity [6] [%] | activity at 10 µM [7] | residual activity [8] [%] | residual activity [9] [%] | activity at 10 µM [10] | residual activity [11] [%] | residual activity ([12]; Compound concentration 10.0 uM) [%] | residual activity [13] [%] | residual activity [14] [%] | residual activity [15] [%] | residual activity [16] [%] | residual activity [18] [%] | residual activity [19] [%] | activity at 10 µM [20] | residual activity [21] [%] | residual activity [22] [%] | other results
1 | CCn1c(CNC(=O)c2nc(Cl)cnc2N)[n+](CC)c2ccc(C(=O)N(C)CCN(C)C)cc21 | 110 | 107 | 101 | 115 | 97 | 66% (not active) | 97 | 130 | 91% (not active) | 101 | 55.6 | 109 | 101 | 92 | 97 | 50 | 83 | 89% (not active) | 20 | 84 | inhibition [5]: 25.3%; residual activity ([12]; Compound concentration 30.0 uM): 31%; residual activity ([12]; Compound concentration 100.0 uM): 24%; inhibition [17]: 23.3%
2 | CCn1c(CNC(=O)c2ncc(C)nc2N)[n+](CC)c2ccc(C(=O)N(C)CN(C)C)cc21 | 105 | 111 | 79 | 97 | 91 | 87% (not active) | 105 | 96 | 81% (not active) | 99 | 39 | 107 | 103 | 61 | 31 | 76 | 90 | 87% (not active) | 35 | 82 | –
